Measured values taken from patent publication US20100298141A1, “SUBSTITUTED PYRIDINE N-OXIDE HERBICIDES” (E. I. DU PONT DE NEMOURS AND COMPANY, priority 2007, published 2010).

Columns and labels:
morningglory = test: Test C pre-/postemergence test; assay type: in vivo, Ipomoea coccinea; settings: for Plant response rating, Morningglory: scale 0 to 100, 0 no effect, 100 complete control
How it was run: (§1)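 Seeds were planted and treated preemergence with test chemical in a non-phytotoxic solvent mixture containing surfactant. Postemergence applications of the same formulation went onto plants 2 to 18 cm tall (1- to 4-leaf stage). A dash marks no test result.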

crabgrass = test: Test C pre-/postemergence test; assay type: in vivo, Digitaria sanguinalis; settings: for Plant response rating, Crabgrass, Large: scale 0 to 100, 0 no effect, 100 complete control
How it was run: as §1

pigweed = test: Test C pre-/postemergence test; assay type: in vivo, Amaranthus retroflexus; settings: for Plant response rating, Pigweed: scale 0 to 100, 0 no effect, 100 complete control
How it was run: as §1

rice = test: Test C flooded paddy test; assay type: in vivo, Oryza sativa; settings: Flood
How it was run: (§2)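 Visual injury ratings against untreated controls, taken 13 to 15 days after compound was added to paddy water standing 3 cm above the soil.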

barnyardgrass = test: Test C flooded paddy test; assay type: in vivo, Echinochloa crus-galli; settings: Flood
How it was run: as §2

downy brome = test: Test C pre-/postemergence test; assay type: in vivo, Bromus tectorum; settings: for Plant response rating, Bromegrass, Downy: scale 0 to 100, 0 no effect, 100 complete control
How it was run: as §1

velvetleaf = test: Test A pre-/postemergence greenhouse test; assay type: in vivo, Abutilon theophrasti; settings: for Velvetleaf plant response rating: 0 to 100 scale
How it was run: (§3)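 Pre: directed soil spray on seeded loam/sand. Post: foliar spray, plants 2–10 cm, 1–2 leaf stage, applied concurrently. Vehicle: non-phytotoxic solvent + surfactant. Greenhouse ~10 d; visual injury rating vs untreated controls.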

corn = test: Test A pre-/postemergence greenhouse test; assay type: in vivo, Zea mays; settings: for Corn plant response rating: 0 to 100 scale
How it was run: as §3

lambsquarters = test: Test C pre-/postemergence test; assay type: in vivo, Chenopodium album; settings: for Plant response rating, Lambsquarters: scale 0 to 100, 0 no effect, 100 complete control
How it was run: as §1

giant foxtail [1] = test: Test A pre-/postemergence greenhouse test; assay type: in vivo, Setaria faberi; settings: for Foxtail, Giant plant response rating: 0 to 100 scale
How it was run: as §3

johnsongrass = test: Test C pre-/postemergence test; assay type: in vivo, Sorghum halepense; settings: for Plant response rating, Johnsongrass: scale 0 to 100, 0 no effect, 100 complete control
How it was run: as §1

Surinam grass = test: Test C pre-/postemergence test; assay type: in vivo, Brachiaria decumbens; settings: for Surinam Grass plant response rating: preemergence, scale 0 (no effect) to 100 (complete control); for Plant response rating, Surinam Grass: scale 0 to 100, 0 no effect, 100 complete control
How it was run: as §1

catchweed bedstraw = test: Test C pre-/postemergence test; assay type: in vivo, Galium aparine
Description: Seeds of plant species selected from blackgrass (Alopecurus myosuroides), downy brome (Bromus tectorum), green foxtail (Setaria viridis), Italian ryegrass (Lolium multiflorum), wheat (Triticum aestivum), wild oat (Avena fatua), catchweed bedstraw (Galium aparine), Russian thistle (Salsola kali), […] (Cynodon dactylon), Surinam grass (Brachiaria decumbens), cocklebur (Xanthium strumarium), corn (Zea mays), crabgrass (Digitaria sanguinalis), woolly cupgrass (Eriochloa villosa), giant foxtail (Setaria faberii), Goosegrass (Eleusin indica), johnsongrass (Sorghum halepense), kochia (Kochia scoparia), lambsquarters (Chenopodium album), morningglory (Ipomoea coccinea), eastern black nightshade (Solanum ptycanthum), yellow nutsedge (Cyperus esculentus), pigweed (Amaranthus retroflexus), common ragweed (Ambrosia elation), soybean (Glycine max), common (oilseed) sunflower (Helianthus annuus), and velvetleaf (Abutilon theophrasti) were planted and treated preemergence with test chemicals formulated in a non-phytotoxic solvent mixture which included a surfactant. At the same time, plants selected from these crop and weed species and also winter barley (Hordeum vulgare), canarygrass (Phalaris minor), and chickweed (Stellaria media) were treated with postemergence applications of some of the test chemicals formulated in the same manner. Plants ranged in height from 2 to 18 cm (1- to 4-leaf stage) for postemergence treatments. […] At time of treatment, test pots were flooded to 3 cm above the soil surface, treated by application of test compounds directly to the paddy water, and then maintained at that water depth for the duration of the test. […] A dash (-) response means no test result.

wheat = test: Test A pre-/postemergence greenhouse test; assay type: in vivo, Triticum aestivum; settings: for Wheat plant response rating: 0 to 100 scale
How it was run: as §3

soybean = test: Test C pre-/postemergence test; assay type: in vivo, Glycine max; settings: for Plant response rating, Soybean: scale 0 to 100, 0 no effect, 100 complete control
How it was run: as §1

bermudagrass = test: Test C pre-/postemergence test; assay type: in vivo, Cynodon dactylon; settings: for Plant response rating, Bermudagrass: scale 0 to 100, 0 no effect, 100 complete control
How it was run: as §1

giant foxtail [2] = test: Test C pre-/postemergence test; assay type: in vivo, Setaria faberii; settings: for Plant response rating, Foxtail, Giant: scale 0 to 100, 0 no effect, 100 complete control
How it was run: as §1

[3] = 31 g ai/ha, Preemergence, scale 0 to 100
[4] = 62 g ai/ha, preemergence, scale 0 (no effect) to 100 (complete control)
[5] = preemergence, 125 g ai/ha, scale 0 (no effect) to 100 (complete control)
[6] = 31 g ai/ha, scale 0 to 100 (0 no effect, 100 complete control)
[7] = 62 g ai/ha, scale 0 to 100, 0 no effect, 100 complete control, 13 to 15 days
[8] = 125 g ai/ha, scale 0 to 100, 0 no effect, 100 complete control, 13 to 15 days
[9] = 250 g ai/ha, scale 0 to 100 (0 no effect, 100 complete control)
[10] = Postemergence, 125 g ai/ha, 0 is no effect, 100 is complete control
[11] = Postemergence, 500 g ai/ha, 0 is no effect, 100 is complete control
[12] = Preemergence, 125 g ai/ha, 0 no effect, 100 complete control
[13] = Preemergence, 500 g ai/ha, 0 to 100 scale where 0 is no effect and 100 is complete control

CC(c1c(C(F)(F)F)nn(C)c1OC(F)F)S(=O)(=O)c1cccc[n+]1[O-] (stereo not drawn) [Compound 5]
5: Plant response rating (0 to 100), Morningglory (morningglory; Postemergence, 31 g ai/ha) | Plant response rating, Morningglory (morningglory; Postemergence, 62 g ai/ha) | Plant response rating (0 to 100), Crabgrass, Large (crabgrass; Postemergence, 31 g ai/ha) | Plant response rating (0 to 100), Bermudagrass (bermudagrass; Postemergence, 31 g ai/ha) | Plant response rating, Foxtail, Giant (giant foxtail [2]; Postemergence, 62 g ai/ha)
85: Morningglory plant response rating (morningglory; [3]) | Plant response rating, Rice (rice; [8]) | Plant response rating, Rice (rice; [9]) | Plant response rating, Barnyardgrass (barnyardgrass; [8]) | Plant response rating, Barnyardgrass (barnyardgrass; [9]) | Galium plant response rating (catchweed bedstraw; [3])
90: Velvetleaf plant response rating (velvetleaf; [12]) | Plant response rating, Velvetleaf (velvetleaf; [13]) | Foxtail, Giant plant response rating (giant foxtail [1]; [10]) | Foxtail, Giant plant response rating (giant foxtail [1]; [11]) | Foxtail, Giant plant response rating (giant foxtail [1]; [12]) | Galium plant response rating (catchweed bedstraw; [4]) | Plant response rating, Wheat (wheat; [13])
55: Plant response rating (0 to 100), Surinam Grass (Surinam grass; Postemergence, 62 g ai/ha)
10: Plant response rating, Morningglory (morningglory; Postemergence, 125 g ai/ha) | Plant response rating, Morningglory (morningglory; Postemergence, 250 g ai/ha) | Plant response rating, Johnsongrass (johnsongrass; Postemergence, 250 g ai/ha)
60: Plant response rating, Crabgrass, Large (crabgrass; Postemergence, 125 g ai/ha) | Plant response rating, Crabgrass, Large (crabgrass; Postemergence, 250 g ai/ha) | Plant response rating (0 to 100), Bromegrass, Downy (downy brome; Preemergence, 250 g ai/ha) | Velvetleaf plant response rating (velvetleaf; [10]) | Plant response rating, Surinam Grass (Surinam grass; Postemergence, 125 g ai/ha) | Wheat plant response rating (wheat; [10]) | Plant response rating, Bermudagrass (bermudagrass; Postemergence, 125 g ai/ha) | Plant response rating, Bermudagrass (bermudagrass; Postemergence, 250 g ai/ha)
30: Corn plant response rating (corn; [10]) | Plant response rating (0 to 100), Surinam Grass (Surinam grass; Postemergence, 31 g ai/ha)
80: Plant response rating, Rice (rice; [7]) | Plant response rating, Barnyardgrass (barnyardgrass; [7]) | Velvetleaf plant response rating (velvetleaf; [11]) | Plant response rating, Corn (corn; [13])
98: Crabgrass, Large plant response rating (crabgrass; [3]) | Foxtail, Giant plant response rating (giant foxtail [2]; [5])
25: Bromegrass, Downy plant response rating (downy brome; [5])
20: Plant response rating, Crabgrass, Large (crabgrass; Postemergence, 62 g ai/ha) | Bromegrass, Downy plant response rating (downy brome; [4]) | Corn plant response rating (corn; [12]) | Plant response rating (0 to 100), Soybean (soybean; Postemergence, 62 g ai/ha)
0: Plant response rating (0 to 100), Pigweed (pigweed; Postemergence, 31 g ai/ha) | Plant response rating (0 to 100), Pigweed (pigweed; Postemergence, 62 g ai/ha) | Plant response rating, Pigweed (pigweed; Postemergence, 125 g ai/ha) | Plant response rating, Pigweed (pigweed; Postemergence, 250 g ai/ha) | Bromegrass, Downy plant response rating (downy brome; [3]) | Plant response rating (0 to 100), Bromegrass, Downy (downy brome; Postemergence, 31 g ai/ha) | Plant response rating, Bromegrass, Downy (downy brome; Postemergence, 62 g ai/ha) | Plant response rating, Bromegrass, Downy (downy brome; Postemergence, 125 g ai/ha) | Plant response rating, Bromegrass, Downy (downy brome; Postemergence, 250 g ai/ha) | Plant response rating (0 to 100), Lambsquarters (lambsquarters; Postemergence, 31 g ai/ha) | Plant response rating, Lambsquarters (lambsquarters; Postemergence, 62 g ai/ha) | Plant response rating, Lambsquarters (lambsquarters; Postemergence, 125 g ai/ha) | Plant response rating, Lambsquarters (lambsquarters; Postemergence, 250 g ai/ha) | Plant response rating (0 to 100), Johnsongrass (johnsongrass; Postemergence, 31 g ai/ha) | Plant response rating, Johnsongrass (johnsongrass; Postemergence, 62 g ai/ha) | Plant response rating, Johnsongrass (johnsongrass; Postemergence, 125 g ai/ha) | Soybean plant response rating (soybean; [3]) | Plant response rating (0 to 100), Soybean (soybean; Postemergence, 31 g ai/ha) | Plant response rating (0 to 100), Soybean (soybean; Preemergence, 250 g ai/ha) | Plant response rating (0 to 100), Foxtail, Giant (giant foxtail [2]; Postemergence, 31 g ai/ha)
100: Morningglory plant response rating (morningglory; [4]) | Plant response rating (0 to 100), Morningglory (morningglory; Preemergence, 250 g ai/ha) | Morningglory plant response rating (morningglory; [5]) | Crabgrass, Large plant response rating (crabgrass; [4]) | Plant response rating (0 to 100), Crabgrass, Large (crabgrass; Preemergence, 250 g ai/ha) | Crabgrass, Large plant response rating (crabgrass; [5]) | Pigweed plant response rating (pigweed; [3]) | Pigweed plant response rating (pigweed; [4]) | Plant response rating (0 to 100), Pigweed (pigweed; Preemergence, 250 g ai/ha) | Pigweed plant response rating (pigweed; [5]) | Lambsquarters plant response rating (lambsquarters; [3]) | Lambsquarters plant response rating (lambsquarters; [4]) | Plant response rating (0 to 100), Lambsquarters (lambsquarters; Preemergence, 250 g ai/ha) | Lambsquarters plant response rating (lambsquarters; [5]) | Plant response rating, Foxtail, Giant (giant foxtail [1]; [13]) | Johnsongrass plant response rating (johnsongrass; [3]) | Johnsongrass plant response rating (johnsongrass; [4]) | Plant response rating (0 to 100), Johnsongrass (johnsongrass; Preemergence, 250 g ai/ha) | Johnsongrass plant response rating (johnsongrass; [5]) | Plant response rating, Surinam Grass (Surinam grass; Postemergence, 250 g ai/ha) | Plant response rating (0 to 100), Galium (catchweed bedstraw; Preemergence, 250 g ai/ha) | Galium plant response rating (catchweed bedstraw; [5]) | Bermudagrass plant response rating (bermudagrass; [3]) | Bermudagrass plant response rating (bermudagrass; [4]) | Plant response rating (0 to 100), Bermudagrass (bermudagrass; Preemergence, 250 g ai/ha) | Bermudagrass plant response rating (bermudagrass; [5]) | Plant response rating (0 to 100), Foxtail, Giant (giant foxtail [2]; Preemergence, 250 g ai/ha)
40: Plant response rating, Rice (rice; [6]) | Plant response rating, Bermudagrass (bermudagrass; Postemergence, 62 g ai/ha) | Plant response rating, Foxtail, Giant (giant foxtail [2]; Postemergence, 125 g ai/ha)
95: Plant response rating (0 to 100), Surinam Grass (Surinam grass; Preemergence, 250 g ai/ha) | Foxtail, Giant plant response rating (giant foxtail [2]; [3]) | Foxtail, Giant plant response rating (giant foxtail [2]; [4])
70: Plant response rating, Barnyardgrass (barnyardgrass; [6]) | Corn plant response rating (corn; [11]) | Surinam Grass plant response rating (Surinam grass; 62 g ai/ha) | Surinam Grass plant response rating (Surinam grass; 125 g ai/ha) | Wheat plant response rating (wheat; [11]) | Wheat plant response rating (wheat; [12]) | Plant response rating, Soybean (soybean; Postemergence, 250 g ai/ha) | Plant response rating, Foxtail, Giant (giant foxtail [2]; Postemergence, 250 g ai/ha)
35: Plant response rating, Soybean (soybean; Postemergence, 125 g ai/ha)
